Results on four compounds are retold here after BindingDB's records for doi:10.1021/jm00034a016 (Merck Research Laboratories, 1994).

Molecules are shown by their SMILES.

The test concerns the target T1, Dimer of Gag-Pol polyprotein [489-587] (Human immunodeficiency virus 1, UniProt P12497).
T1 construct: 489-587
Kind of test: Protease Inhibition Assay. To be noted: pH 5.5; 30 °C. How it is done: The IC50 values for the compounds were determined using purified HIV-1 Protease. Inhibition of the cleavage of the peptide H-Val-Ser-Gln-Asn-(L-beta-napthylalanine)-Pro-Ile-Val-OH was assessed at 30 °C, pH = 5.5 with [Enzyme] = 30 pM for 1 h, using HPLC with UV detection for quantification of the products. For the IC50 data a substrate concentration of 0.4 mg/mL was used, and data was fit to a four parameter sigmoidal equation.
In turn, `C[C@@H]1OCC[C@@H]1OC(=O)N[C@@H](Cc1ccccc1)[C@H](O)CN1C[C@H]2CCCC[C@H]2C[C@H]1C(=O)NC(C)(C)C` [(2S,3S)-2-methyloxolan-3-yl N-[(2S,3R)-4-[(3S,4aS,8aS)-3-(tert-butylcarbamoyl)-decahydroisoquinolin-2-yl]-3-hydroxy-1-phenylbutan-2-yl]carbamate] returned an IC50 of 52.4 nM.

As to `C[C@H]1OCC[C@H]1OC(=O)N[C@@H](Cc1ccccc1)[C@H](O)CN1C[C@H]2CCCC[C@H]2C[C@H]1C(=O)NC(C)(C)C` [Isoquinoline furanyl urethane analog], the IC50 stood at 169 nM.

For `C[C@H]1[C@@H](OC(=O)N[C@@H](Cc2ccccc2)[C@H](O)CN2C[C@H]3CCCC[C@H]3C[C@H]2C(=O)NC(C)(C)C)CCS1(=O)=O` [N-tert-butyldecahydro-2-[2(R)-hydroxy-4-phenyl-3(S)-[[[[2 (S)-methyl-(3 S)-l , l-dioxotetrahydrothiophene-3-yl]-oxy]carbonyl]amino]butyl]-(4aS,8aS)-isoquinoline-3(S)-carboxamide], half-maximal inhibition (IC50) was put at 11.4 nM. This IC50 lies about 15-fold lower than the previous one.

Take `C[C@@H]1[C@H](OC(=O)N[C@@H](Cc2ccccc2)[C@H](O)CN2C[C@H]3CCCC[C@H]3C[C@H]2C(=O)NC(C)(C)C)CCS1(=O)=O` [N-tert-butyldecahydro-2-[2(R)-hydroxy-4-phenyl-3(S)-[[[[4 (S)-methyl-(3 R)-l , l-dioxotetrahydrothiophene-3-yl]-oxy]carbonyl]amino]butyl]-(4aS,8aS)-isoquinoline-3(S)-carboxamide]: the IC50 worked out at 22.3 nM.

The term IC50 denotes the midpoint of a concentration-inhibition curve. A high value points to lower potency.
